Series [1] relates to CB1 related cannabimimetic activity. The series can be described thus: Safety: body temperature, catalepsy, spontaneous locomotor activity, elevated plus maze, sensitivity to touch. The format is in vivo, ICR male mice. Conditions: 2 mg/kg i.v. As to the method:
In the present study, impact of compounds of the invention on the central nervous system was measured by monitoring the body temperature, catalepsy and spontaneous locomotor activity of rodents. These activities are part of the Tetrad assays which are indicative, if all parameters are affected, of CB1 mediated activity. In addition, lack of CNS psychomimetic effect was assessed in the elevated plus maze model. Finally, sensitivity to touch was determined in order to evaluate peripheral CB1 related activity.
ICR male mice (average body weight 25 g, Harlan, Israel) were administered the compounds of the invention i.v. at a dose of 2 mg/kg and at a volume dose of 5 ml/kg. The psychoactive cannabinoid HU-210 was used as positive control at the 100-fold lower dose of 0.02 mg/kg i.v. The following measurements were made starting 15 minutes after compound administration. All tests were completed for each animal within approximately 10 minutes. Rectal temperature was monitored using a thermistor probe (YSI model 400, USA). Spontaneous locomotion was assessed using the open field methodology. The number of squares crossed by the animals were recorded and analyzed during a period of three minutes. At the end of the open field test, the animals were tested for catalepsy symptoms. This was carried out by gently forcing the animal to stand on its hind paws when its front paws are holding on an elevated beam. The time for the animal to step down of the beam was measured in seconds. A normal animal withdraws the beam immediately whereas cataleptic animal tend to stay on the beam. The longer the animal stays leaning on the beam, the more cataleptic the animal is. The behavior of the animals was then assessed in the elevated plus maze. The elevated plus maze consists of two open arms and two arms that are enclosed by high walls (arms 30×10 cm, wall height 20 cm). The elevated plus maze is usually elevated 80 cm above the floor. The mouse is placed on the maze head facing an open arm, and the time spent in the different compartments of the maze (open arms, closed arms and central area) are measured for the next 5 minutes. Results are expressed as percent of the time spent in the open arms, normal animals preferring to stay in the closed arms of the maze. Finally, animals were gently touched by an observer blinded for the treatment group and their sensitivity scored according to the following scale: 0 not sensitive, 1 sensitive and 2 highly sensitive. Results are expressed as average±SEM. At the end of the study, the animals were euthanized.

Another series relates to iNOS. The series can be described thus: Gene expression in LPS activated RAW 264.7 macrophages, iNOS. The format is cell-based, mouse. To be noted: RAW 264.7, 10 μM, LPS 1 μg/ml, RNA 3 hrs after activation, vs vehicle treated activated cells. As to the method: RAW 264.7 macrophages, a mouse cell line (ATCC # TIB 71), were grown in Dulbecco's modified Eagle's medium (DMEM) with 4 mM L-glutamine adjusted to contain 1.5 g/L sodium bicarbonate, 4.5 g/L glucose, and 10% heat inactivated fetal bovine serum. Cells were grown in tissue culture flasks and seeded at appropriate density into 6 wells tissue culture plates. Four million Raw cells in half a milliliter were stimulated with 1 μg/ml LPS E. coli 055:B5 (DIFCO Laboratories). The mouse macrophages were pre-treated for one hour with controls or 10 μM of test compounds, and later on activated with LPS. RNA samples were extracted from the cells 3 hrs after activation and gene expression levels were analyzed by real-time RT-PCR. In parallel, supernatants were collected and secretion of inflammatory mediators was analyzed using ELISA techniques according to the instructions of the kit manufacturer.
Total RNA is prepared using SV total RNA isolation system (Promega). The cells were homogenized in lysis buffer. The lysates were transferred to an RNA isolation column, treated with DNAse, washed and eluted according to kit instructions. RNA concentrations were determined using GeneQuant II (Pharmacia-Amersham). Complementary DNA (cDNA) was synthesized from total RNA using […] II reverse transcriptase (Life Technologies). 2 μg of total RNA were combined with an oligo (dT)15 primer, 0.5 mM dNTP mix, 8 units of reverse transcriptase and other reaction components up to a final volume of 20 μl, according to the kit instructions. The reaction mixture was incubated at 42° C. for 45 min and inactivated at 70° C. for 15 minutes. Quantitative real-time RT-PCR included 1 μl of the cDNA, 300 nM of the appropriate forward and reverse primers (according to the gene monitored) and 7.5 μl of the reaction mix containing buffer, nucleotides, Taq polymerase and SYBER green (SYBER Green master mix, Applied Biosystems), in a total reaction volume of 15 μl. Gene amplification was obtained using the GeneAmp 5700 sequence detection system (Applied Biosystems). Amplification included one stage of 10 minutes at 95° C. followed by 40 cycles of a 2-steps loop: 20 seconds at 95° C., and 1 minute at 60° C. During each annealing step, the amount of the amplified product was measured by the fluorescence of the double strand DNA binding dye, SYBER Green. The cycle of threshold (CT), representing the PCR cycle at which an increase in fluorescence above a baseline signal can be first detected, was determined for each product. A delay of one PCR cycle in the CT is translated into a two-fold decrease in starting template molecules and vice versa. The changes in the CT of the specific gene product were normalized to the changes in the CT of housekeeping cyclophilin or GAPDH as reference genes. Results were expressed as fold increase of gene expression in treated or untreated activated cells above the resting cells, after normalization to cyclophilin or GAPDH. Cells were also tested for viability to confirm that any effect on gene expression was indeed due to modulation of transcription of a specific target and not to cytoxicity.
Results were further expressed as percent inhibition of gene expression in compound treated activated cells over vehicle “treated” activated cells. Since the modulation of IL-10 and TNF-α gene expression by the compounds of the invention is relatively minor, it is not reported. […] Inhibition above 50% was considered significant.

Regarding `CCCCC(C)(C)c1cc(O)c2c(c1)OC1C2CCC(C)(C)C1O` (centres unmarked) [Compound C6S-7, 3-(1,1-dimethylpentyl)-7,7-dimethyl-5a,6,7,8,9,9a-hexahydro-dibenzofuran-1,6-diol], the “adverse cannabimimetic activities in any of the parameters monitored” value (“adverse cannabimimetic activities in any” for short) in series [1] was “None”.
As to `CCCCCCC(C)(C)c1cc(O)c2c(c1)OC1(C)CCCC21` (stereo not drawn) [Compound C5S-2, 6-(1,1-dimethylheptyl)-8a-methyl-2,3,3a,8a-tetrahydro-1H-8-oxa-cyclo-penta[α]inden-4-ol], the “Percent inhibition of gene expression, iNOS” value (shortened to “Percent inhibition”) with iNOS is “NO (NO indicates that the compound tested did not significantly affect the transcription of the gene assessed and that its activity is comparable to vehicle, within ±20% from this control)”. Also, the “adverse cannabimimetic activities in any” value in series [1] is “None”.
In the case of `CCCCC(C)(C)c1cc(O)c2c(c1)OC1(C)CCCC21` (stereo not drawn) [Compound C5S-1, 6-(1,1-dimethylpentyl)-8a-methyl-2,3,3a,8a-tetrahydro-1H-8-oxa-cyclopenta[α]inden-4-ol], the “Percent inhibition” value in the series on iNOS was determined as 37%. Further, in series [1], the “adverse cannabimimetic activities in any” value was “None”.
The corresponding values for `CCCCCCC(C)(C)c1cc(O)c2c3c(oc2c1)C(=O)CCC3(C)C` [Compound C6M-9, 7-(1,1-Dimethylheptyl)-9-hydroxy-1,1-dimethyl-2,3-dihydro-1H-dibenzofuran-4-one] are 32% and “None”.
Turning to `CCCCCCC(C)(C)c1cc(O)c2c(c1)OC1C(O)CCCCC21` (stereo not drawn) [Compound C7S-2, 2-(1,1-dimethylheptyl)-5,6,7,8,9,9a-hexahydro-4bH-10-oxa-benzo[α]azulen-4,9-diol], the “Percent inhibition” value with iNOS is “NO (NO indicates that the compound tested did not significantly affect the transcription of the gene assessed and that its activity is comparable to vehicle, within ±20% from this control)”.
Regarding `CCCCC(C)(C)c1cc(O)c2c(c1)OC1CCCCC21` (centres unmarked) [Compound C6S-3, 3-(1,1-dimethylpentyl)-5a,6,7,8,9,9a-hexahydro-dibenzofuran-1-ol], the “Percent inhibition” value with iNOS amounted to 68%. Moreover, the “adverse cannabimimetic activities in any” value in series [1] was “None”. Moreover, the “decrease of number of squares crossed” value in series [1] (non-significant) turned out to be 13%. Also, the “number of squares crossed (spontaneous locomotor activity)” value in series [1] (period of three minutes, vehicle 75.63±6.24) is 65.80±7.04.
With `CCCCCCC(C)(C)c1cc(O)c2c(c1)OC1C=CCCC21` (centres unmarked) [Compound C6S-2, 3-(1,1-Dimethylheptyl)-5a,8,9,9a-tetrahydro-dibenzofuran-1-ol], the “Percent inhibition” value in the series on iNOS amounted to 23%. Besides, the “adverse cannabimimetic activities in any” value in series [1] is given as “None”.

The values above are taken from patent US20090054376A1, “BENZOFURAN DERIVATIVES WITH THERAPEUTIC ACTIVITIES” (Pharmos Corporation, priority 2005, published 2009).
